In ChEMBL document CHEMBL1201862, “PubChem BioAssay data set” (2004):
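Grown in 96-well plates, cells were treated for 48 hours with each compound at five concentrations. Insufficient inhibition: endpoint recorded as highest concentration tested. GI50 is the concentration that inhibits growth by half.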 The source made the active and inactive calls. Rule as the data show it: active = GI50 up to about 1.1 µM and inactive = higher.

Experiments:
Test in all cases: growth of human tumour cells (NCI), 48 h
[1] = tested on: CAKI-1
[2] = tested on: COLO 205
[3] = tested on: EKVX
[4] = tested on: HCC 2998
[5] = tested on: HCT-15
[6] = tested on: HL-60
[7] = tested on: IGROV-1
[8] = tested on: MOLT-4
[9] = tested on: NCI-H226
[10] = tested on: NCI-H460
[11] = tested on: NCI-H522
[12] = tested on: OVCAR-8
[13] = tested on: RPMI-8226
[14] = tested on: SF-268
[15] = tested on: SF-295
[16] = tested on: SK-MEL-28
[17] = tested on: SK-MEL-5
[18] = tested on: SN12C
[19] = tested on: UACC-62
[20] = tested on: UO-31

| Compound | GI50 [1] | GI50 [2] | GI50 [3] | GI50 [4] | GI50 [5] [µM] | GI50 [6] | GI50 [7] | GI50 [8] | GI50 [9] | GI50 [10] | GI50 [11] | GI50 [12] | GI50 [13] | GI50 [14] | GI50 [15] | GI50 [16] | GI50 [17] | GI50 [18] | GI50 [19] | GI50 [20] |
| --- | --- | --- | --- | --- | --- | --- | --- | --- | --- | --- | --- | --- | --- | --- | --- | --- | --- | --- | --- | --- |
| CCOc1cc2c(cc1O)/C(=N\N)C[C@@H]1[C@@H]2CC[C@]2(C)[C@@H](O)CC[C@@H]12 | 5.43 µM (inactive) | 27.4 µM (inactive) | 8.28 µM (inactive) | 2.07 µM (inactive) | 1.31 | 0.337 µM (active) | 6.97 µM (inactive) | 4.27 µM (inactive) | 4.76 µM (inactive) | 2.99 µM (inactive) | 2.8 µM (inactive) | 7.1 µM (inactive) | 4.48 µM (inactive) | 5.3 µM (inactive) | 0.397 µM (active) | 5.66 µM (inactive) | 1.28 µM (inactive) | 9.12 µM (inactive) | 0.879 µM (active) | 3.96 µM (inactive) |
| CCOC(=O)n1c2ccccc2c2c(O)c(OC)c3c(c21)C(=O)NC3=O | 20.7 µM (inactive) | 21.4 µM (inactive) | > 100 µM (inactive) | 12.2 µM (inactive) | 17.3 | 20.7 µM (inactive) | 14.7 µM (inactive) | 19.5 µM (inactive) | 7.59 µM (inactive) | 13.9 µM (inactive) | 22.6 µM (inactive) | 31.8 µM (inactive) | 58.5 µM (inactive) |  | 75.3 µM (inactive) | > 100 µM (inactive) | 37.1 µM (inactive) | 83.6 µM (inactive) | 37.7 µM (inactive) | 33.1 µM (inactive) |
| O=C(CC(=O)c1ccc([N+](=O)[O-])cc1)C(=O)Nc1nccs1 | > 100 µM (inactive) |  | > 100 µM (inactive) | > 100 µM (inactive) | > 100 | > 100 µM (inactive) | > 100 µM (inactive) | > 100 µM (inactive) | > 100 µM (inactive) | > 100 µM (inactive) | > 100 µM (inactive) |  | > 100 µM (inactive) | > 100 µM (inactive) |  | > 81.5 µM (inactive) | > 100 µM (inactive) | > 100 µM (inactive) | > 100 µM (inactive) | > 100 µM (inactive) |
| Cc1cccc(-n2c(=S)[nH]c3c(sc(=O)n3-c3ccccc3C)c2=O)c1 | > 100 µM (inactive) | > 100 µM (inactive) | > 100 µM (inactive) | > 100 µM (inactive) | > 100 | > 100 µM (inactive) | > 100 µM (inactive) | > 100 µM (inactive) | > 100 µM (inactive) | > 100 µM (inactive) | > 100 µM (inactive) | > 100 µM (inactive) | > 100 µM (inactive) | > 100 µM (inactive) | > 100 µM (inactive) | > 100 µM (inactive) | > 100 µM (inactive) | > 100 µM (inactive) | > 100 µM (inactive) | > 100 µM (inactive) |
| Cn1nc2ccc3nccc(NCCNCCCl)c3c2n1 | > 10 µM (inactive) | > 100 µM (inactive) | > 100 µM (inactive) | > 100 µM (inactive) | > 100 | > 100 µM (inactive) | > 100 µM (inactive) | > 100 µM (inactive) | > 100 µM (inactive) | > 100 µM (inactive) | > 100 µM (inactive) | > 100 µM (inactive) | > 100 µM (inactive) | > 100 µM (inactive) | > 100 µM (inactive) | > 100 µM (inactive) |  | > 100 µM (inactive) | > 100 µM (inactive) | > 100 µM (inactive) |
| O=S1(=O)OCCOS(=O)(=O)C1Cl | > 100 µM (inactive) | > 100 µM (inactive) | > 100 µM (inactive) | > 100 µM (inactive) |  | > 100 µM (inactive) | > 100 µM (inactive) | > 100 µM (inactive) | > 100 µM (inactive) |  | > 100 µM (inactive) | > 100 µM (inactive) | > 100 µM (inactive) | > 100 µM (inactive) | > 100 µM (inactive) | > 100 µM (inactive) | > 100 µM (inactive) | > 100 µM (inactive) | 82.6 µM (inactive) | > 100 µM (inactive) |
| COc1ccc(/C(=N/O)C(c2ccc(OC)cc2)C2C(=O)Oc3ccccc32)cc1 (configuration not stated) | 92 µM (inactive) | 1.66 µM (inactive) | 53.1 µM (inactive) | > 100 µM (inactive) | 71.6 | 52.5 µM (inactive) | 40 µM (inactive) | > 100 µM (inactive) | 37.2 µM (inactive) | 71.3 µM (inactive) | 35.6 µM (inactive) | 61.7 µM (inactive) | > 100 µM (inactive) | > 100 µM (inactive) | 3.13 µM (inactive) | 78.2 µM (inactive) | 24.8 µM (inactive) | 84.7 µM (inactive) | 82 µM (inactive) | 35.5 µM (inactive) |
| COc1cc2ccc1-c1cc(ccc1O)CC1c3cc4c(cc3CCN1C)Oc1c(OC)cc3c(c1O4)C(C2)N(C)CC3 (configuration not stated) | 2.52 µM (inactive) |  | 2.1 µM (inactive) | 1.63 µM (inactive) | 1.68 | 2.16 µM (inactive) | 2.17 µM (inactive) | 1.83 µM (inactive) | 2.22 µM (inactive) | 1.75 µM (inactive) | 1.75 µM (inactive) | 1.87 µM (inactive) | 1.91 µM (inactive) | 1.81 µM (inactive) | 1.81 µM (inactive) | 1.52 µM (inactive) | 2.08 µM (inactive) | 2.08 µM (inactive) | 2 µM (inactive) | 1.8 µM (inactive) |
| N#CC(c1nc2ccccc2nc1Cl)S(=O)(=O)c1ccccc1 (configuration not stated) | 51.3 µM (inactive) | > 100 µM (inactive) | > 100 µM (inactive) | 65.9 µM (inactive) | 54.1 | > 100 µM (inactive) |  | 32.4 µM (inactive) | > 100 µM (inactive) | > 100 µM (inactive) | 30.7 µM (inactive) | 74 µM (inactive) | 37.2 µM (inactive) | > 100 µM (inactive) |  | > 100 µM (inactive) | > 100 µM (inactive) | 39.8 µM (inactive) | 35.8 µM (inactive) | 43.8 µM (inactive) |
| CN(C)CC1(C)CC/C(=C\c2ccc(Cl)cc2)C1=O (configuration not stated) | 22.7 µM (inactive) | 17.4 µM (inactive) |  | 40.5 µM (inactive) | 34.4 | 19.7 µM (inactive) | 74 µM (inactive) | 20.5 µM (inactive) | > 100 µM (inactive) | 24.4 µM (inactive) | 17.7 µM (inactive) | 40.1 µM (inactive) | 19.1 µM (inactive) | 36.9 µM (inactive) | 67.1 µM (inactive) | > 100 µM (inactive) | 39 µM (inactive) | 51.3 µM (inactive) | 28.5 µM (inactive) | 45.8 µM (inactive) |
| CCCC/C(C)=N/NC(N)=S | > 100 µM (inactive) | > 100 µM (inactive) | > 100 µM (inactive) | > 100 µM (inactive) | > 100 | 14.5 µM (inactive) | > 100 µM (inactive) | > 100 µM (inactive) | > 100 µM (inactive) | > 100 µM (inactive) | > 100 µM (inactive) | > 100 µM (inactive) | > 100 µM (inactive) | > 100 µM (inactive) | > 100 µM (inactive) | > 100 µM (inactive) | > 100 µM (inactive) | > 100 µM (inactive) | > 100 µM (inactive) | > 100 µM (inactive) |
| CC1(C)OC(=O)C(c2ccsc2)C(=O)O1 | > 100 µM (inactive) | > 100 µM (inactive) | > 100 µM (inactive) | > 100 µM (inactive) | > 100 | > 100 µM (inactive) |  | > 100 µM (inactive) | > 100 µM (inactive) | > 100 µM (inactive) | > 100 µM (inactive) | > 100 µM (inactive) | > 100 µM (inactive) | > 100 µM (inactive) | > 100 µM (inactive) | > 100 µM (inactive) | > 100 µM (inactive) | > 100 µM (inactive) | > 100 µM (inactive) | > 100 µM (inactive) |
| C1=CC=C2NCCSCC/N=C3/C=CC=CC=C3NCCSCC/N=C\2C=C1 | > 100 µM (inactive) | > 100 µM (inactive) | > 100 µM (inactive) | > 100 µM (inactive) | > 100 | > 100 µM (inactive) | > 100 µM (inactive) | > 100 µM (inactive) | > 100 µM (inactive) | > 100 µM (inactive) | > 100 µM (inactive) | > 100 µM (inactive) | > 100 µM (inactive) | > 100 µM (inactive) | > 100 µM (inactive) | > 100 µM (inactive) | > 100 µM (inactive) | > 100 µM (inactive) | > 100 µM (inactive) | > 100 µM (inactive) |
| NCCCn1c2ccccc2c2c3c(c4c(c21)CCC(O)CC4)C(=O)NC3=O (configuration not stated) | 3.66 µM (inactive) |  | 9.18 µM (inactive) | 0.845 µM (active) | 11 | 9.12 µM (inactive) | 9.79 µM (inactive) | 1.53 µM (inactive) | 2.74 µM (inactive) | 2.06 µM (inactive) | 2.44 µM (inactive) | 5.01 µM (inactive) | 1.98 µM (inactive) | 1.58 µM (inactive) | 3.22 µM (inactive) | 0.92 µM (active) | 3.31 µM (inactive) | 2.42 µM (inactive) | 4.12 µM (inactive) | 6.27 µM (inactive) |
| O=c1[nH]cnc2[nH]nnc12 | 1.25 µM (inactive) | 47.1 µM (inactive) | > 100 µM (inactive) | 18.1 µM (inactive) | 11.6 | 0.323 µM (active) | 16 µM (inactive) | 0.726 µM (active) | 5.6 µM (inactive) | 8.65 µM (inactive) | 9.51 µM (inactive) | 0.723 µM (active) | 0.685 µM (active) | 1.06 µM (active) | 8.65 µM (inactive) | 4.46 µM (inactive) | 41.5 µM (inactive) | 1.93 µM (inactive) | 0.968 µM (active) | 2.73 µM (inactive) |
